Results from the NIST ThermoML archive (doi:10.1021/je400250u).

Key:
[1] = xn = mol fraction of the nth substance listed; conditions: 100 kPa, Liquid; for viscosity: Capillary tube (Ostwald / Ubbelohde) method; for mass density: Vibrating tube method
[2] = refractive index (Na D-line) (dimensionless); xn = mol fraction of the nth substance listed; conditions: 100 kPa, Liquid, Standard Abbe refractometry

C1CC[C@H]2CCCC[C@H]2C1 [cis-decahydronaphthalene] + CCCCCCCCCCC
Conditions	mass density, [1] [kg/m3]	refractive index, [2]	viscosity, [1] [mPa·s]
293.15 K, x1 = 0.1086	753.22	–	1.24
293.15 K, x1 = 0.2072	765.62	–	1.31
293.15 K, x1 = 0.3066	778.83	–	1.415
293.15 K, x1 = 0.4031	792.39	–	1.542
293.15 K, x1 = 0.5028	807.23	–	1.69
293.15 K, x1 = 0.5976	822.17	–	1.829
293.15 K, x1 = 0.6835	836.42	–	2.021
293.15 K, x1 = 0.7983	856.82	–	2.368
293.15 K, x1 = 0.8954	875.37	–	2.726
293.15 K, x1 = 1	896.85	–	3.355
298.15 K, x1 = 0.1086	749.55	1.4192	1.148
298.15 K, x1 = 0.2072	761.95	1.4242	1.208
298.15 K, x1 = 0.3066	775.16	1.4294	1.3
298.15 K, x1 = 0.4031	788.74	–	1.415
298.15 K, x1 = 0.4075	–	1.4352	–
298.15 K, x1 = 0.5028	803.55	–	1.554
298.15 K, x1 = 0.5059	–	1.4411	–
298.15 K, x1 = 0.592	–	1.4469	–
298.15 K, x1 = 0.5976	818.48	–	1.67
298.15 K, x1 = 0.6835	832.71	1.4532	1.84
298.15 K, x1 = 0.7983	853.1	1.4609	2.139
298.15 K, x1 = 0.8954	871.62	1.4686	2.458
298.15 K, x1 = 1	893.06	1.4776	3.011
303.15 K, x1 = 0.1086	745.85	–	1.062
303.15 K, x1 = 0.2072	758.26	–	1.112
303.15 K, x1 = 0.3066	771.47	–	1.201
303.15 K, x1 = 0.4031	785.05	–	1.326
303.15 K, x1 = 0.5028	799.85	–	1.424
303.15 K, x1 = 0.5976	814.77	–	1.53
303.15 K, x1 = 0.6835	828.99	–	1.682
303.15 K, x1 = 0.7983	849.36	–	1.949
303.15 K, x1 = 0.8954	867.86	–	2.233
303.15 K, x1 = 1	889.26	–	2.718
308.15 K, x1 = 0.1086	742.15	1.4151	0.977
308.15 K, x1 = 0.2072	754.56	1.4198	1.034
308.15 K, x1 = 0.3066	767.77	1.4251	1.111
308.15 K, x1 = 0.4031	781.35	–	1.215
308.15 K, x1 = 0.4075	–	1.431	–
308.15 K, x1 = 0.5028	796.14	–	1.307
308.15 K, x1 = 0.5059	–	1.4366	–
308.15 K, x1 = 0.592	–	1.4426	–
308.15 K, x1 = 0.5976	811.05	–	1.41
308.15 K, x1 = 0.6835	825.27	1.4487	1.546
308.15 K, x1 = 0.7983	845.62	1.4565	1.818
308.15 K, x1 = 0.8954	864.1	1.464	2.035
308.15 K, x1 = 1	885.46	1.4736	2.47
313.15 K, x1 = 0.1086	738.44	–	0.903
313.15 K, x1 = 0.2072	750.84	–	0.962
313.15 K, x1 = 0.3066	764.05	–	1.034
313.15 K, x1 = 0.4031	777.64	–	1.115
313.15 K, x1 = 0.5028	792.42	–	1.204
313.15 K, x1 = 0.5976	807.33	–	1.303
313.15 K, x1 = 0.6835	821.53	–	1.426
313.15 K, x1 = 0.7983	841.87	–	1.673
313.15 K, x1 = 0.8954	860.33	–	1.859
313.15 K, x1 = 1	881.65	–	2.252
318.15 K, x1 = 0.1086	734.71	1.4114	0.843
318.15 K, x1 = 0.2072	747.12	1.416	0.899
318.15 K, x1 = 0.3066	760.33	1.4213	0.964
318.15 K, x1 = 0.4031	773.91	–	1.038
318.15 K, x1 = 0.4075	–	1.4275	–
318.15 K, x1 = 0.5028	788.7	–	1.119
318.15 K, x1 = 0.5059	–	1.4331	–
318.15 K, x1 = 0.592	–	1.4383	–
318.15 K, x1 = 0.5976	803.6	–	1.209
318.15 K, x1 = 0.6835	817.79	1.4448	1.319
318.15 K, x1 = 0.7983	838.11	1.4536	1.505
318.15 K, x1 = 0.8954	856.55	1.4612	1.71
318.15 K, x1 = 1	877.85	1.4696	2.063
323.15 K, x1 = 0.1086	730.98	–	0.786
323.15 K, x1 = 0.2072	743.39	–	0.841
323.15 K, x1 = 0.3066	756.6	–	0.9
323.15 K, x1 = 0.4031	770.18	–	0.97
323.15 K, x1 = 0.5028	784.96	–	1.043
323.15 K, x1 = 0.5976	799.86	–	1.124
323.15 K, x1 = 0.6835	814.05	–	1.225
323.15 K, x1 = 0.7983	834.35	–	1.392
323.15 K, x1 = 0.8954	852.77	–	1.577
323.15 K, x1 = 1	874.05	–	1.898
